Test results as given in patent publication US20200009118A1, “COMPOSITIONS AND METHODS FOR THE TREATMENTOF NEURODEGENERATIVE AND OTHER DISEASES” (Glialogix, Inc., priority 2017, published 2020).

Tests used:
[1] = system: SOD1^G93A transgenic mice; test: Survival study in the SOD1 mouse model of ALS; format: in vivo; conditions: for Observed Days, Total Days: whole cohort
Method: High-copy SOD1^G93A transgenic mice were derived from the B6SJL-TgN(SOD1G93A)1Gur strain, obtained from The Jackson Laboratory (Bar Harbor, Me.) and originally produced by Gurney, e.g. Gurney et al., Science 264: 1772-1775 (1994). Animal experiments with the SOD1 model were performed at ALS Therapy Development Institute (herein “ALS-TDI”; Cambridge, Mass.). All mice were genotyped to verify copy number of the SOD1 transgene. Animal handling and study protocols were as previously described by ALS-TDI, e.g. Scott et al., Amyotroph. Lateral Scler. 9: 4-15 (2008).
Groups were balanced with respect to gender and body weight within gender. In addition, groups were age-matched and littermate-matched. […] Each cohort of was balanced between males and females.
5 mL of 0.1 N NaOH was added and the tube gently sonicated. Approximately 140 μL of 1 N HCl was then added to bring the pH to 8.00. The resulting 20 mg/mL solution was delivered by intraperitoneal injection at 10 ml/kg. Vehicle treated mice were administered saline.
Neurological scores were assessed daily from day 50 for both hind legs. The neurological score was based on a scale of 0 to 4. Criteria used to assign each score level are from Scott et al., Amyotroph. Lateral Scler. 9: 4-15 (2008) and are described in Table 2.
The date of definitive neurological disease was the day that the mouse first scored a “2” on the Neurological Score. Upon reaching a score of Neurological Score of “4”, mice were euthanized and the date of death was recorded.
Survival after onset of definitive neurological disease is defined as the total number of days the mice lived after reaching definitive neurological disease (Neurological Score of 2) and before death (Neurological Score of 4). Survival after onset of definitive neurological disease was analyzed in two ways.
The first day that a neurological score was determined was day 50 of age; measurements were collected daily afterwards until death.
The three categories were: (1) days spent before definitive neurological disease, e.g. with a neurological score of 0 or 1; (2) days spent during definitive neurological disease, e.g. with a neurological score of 2 or 3; and (3) days at death, e.g. with a neurological score of 4. By definition, mice were only in the dead state for 1 day, as they were euthanized upon reaching a neurological score of 4; this category was included as a positive control to ensure the integrity of the data and analysis.

[2] = system: 2D2-TCR MOG (2D2) mice; test: 2D2 mouse model of optic neuritis, myelin staining of the optic nerve; format: in vivo; conditions: for Number of animals, average myelin content score Low / Number of animals, average myelin content score high / Number of animals, average myelin content score moderate: sulfasalazine 200 mg/kg or memantine 5 mg/kg IP BID
Excerpt: This model serves as an inducible model of optic neuritis with a high rate of penetrance. The development of optic neuritis was monitored by animal observation and histopathology.
Female 2D2 (strain C57BL/6-Tg(Tcra2D2,Tcrb2D2)1Kuch/J) and WT mice (C57BL/6) were purchased from The Jackson Laboratory. Each cohort size was 14 animals. Mice were delivered to Ophthy-DS (Kalamazoo, Mich.) under the supervision of Renovo Neural (Cleveland, Ohio) at 8-12 weeks of age and then acclimated for an additional 4 weeks before beginning the experiment. Animals were housed in pathogen-free, individually-ventilated, enriched cages on a 12 h:12 h light:dark cycle with food and water ad libitum. Mice were monitored daily for welfare and symptoms of optic neuritis.
After 4 weeks of acclimation, animals were randomized by weight into 4 groups of 14 animals each. To induce optic neuritis, 200 ng of Pertussis toxin was injected into the 2D2 animals on days 1 and 3 as described by Guan et al. Dosing of vehicle or treatment compounds began at day 1. The four cohorts are: • (1) WT mice (C57BL/6) treated with vehicle (200 μl saline IP, BID). This cohort serves as a control for the readouts of optic neuritis disease. • (2) 2D2 mice vehicle treated with vehicle (200 μl saline IP, BID). […] The memantine-treated group served as a control for anti-glutamatergic therapy in the 2D2 model of optic neuritis.
On day 30, animals were euthanized and perfused. Optic nerves and retinas were dissected out and embedded in paraffin and sections mounted on slides. 5-7 sections of the optic nerve (from one eye) from ten animals in each cohort were stained by Toluidine Blue. Histopathological analysis of the slides and quantitation of the myelin staining intensity was performed blinded by a board-certified pathologist, Dr. Igor Polyakov (Minneapolis, Minn.). Staining intensity of each slide was graded as either low, moderate or high. Both peripheral and central sections of the optic nerve were graded. The intensity of the myelin staining between the cohorts on a per section and a per animal basis was compared using chi-square and Fishers' exact test with a p<0.05 considered significant.
On a per animal basis, this yielded 20 scores per cohort: average score per section×2 scores per animal (peripheral or central)×10 animals per cohort. On a per section basis, this yielded approximately 110 score per cohort: score per section×5-7 sections per animal×2 scores per section (peripheral or central)×10 animals per cohort.

[3] = system: multiple sclerosis patients; conditions: 2 grams per day, cited from earlier work
[4] = system: mouse model of seizures; conditions: approximately 260-320 mg/kg intraperitoneal; cited from earlier work
[5] = 200 mg/kg IP two times per day from age 50 days
[6] = Before definitive disease onset (neurological score = 0 or 1)
[7] = Definitive neurological disease (neurological score = 2 or 3)
[8] = Total (central + peripheral, 20 scores), day 30
[9] = per section basis, Central Region, day 30
[10] = per section basis, Peripheral Region, day 30
[11] = per section basis, Total, day 30

O=C(O)c1cc(/N=N/c2ccc(S(=O)(=O)Nc3ccccn3)cc2)ccc1O [Sulfasalazine, 2-hydroxy-5-[(E)-2-{4-[(pyridin-2-yl)sulfamoyl]phenyl}diazen-1-yl]benzoic acid]
Mean Day of Death ([1]; 200 mg/kg IP two times per day): 132.6 | Mean Day of Definitive Neurological Disease ([1]; 200 mg/kg IP two times per day): 115.2 | Total Days of Survival after Onset of Definitive Disease ([1]; 200 mg/kg IP two times per day): 17.4 days | increase in median absolute survival [1, 5]: 3.5 days | increased absolute lifespan [1, 5]: 2.7% | time of disease onset [1, 5]: no statistical effect | increase in median absolute survival ([1]; 200 mg/kg IP two times per day from age 50 days, listed as sulfasalazine formulation): 3.7 days | effect on absolute survival, greater than riluzole ([1]; 2.7% vs. […] increased absolute lifespan): 68% | Observed Days Minus Expected Days [1, 6]: -14 days | Observed Days, Total Days [1, 6]: 1708 days | Observed Days Minus Expected Days ([1]; Death (neurological score = 4)): 0 days | Observed Days, Total Days ([1]; Death (neurological score = 4)): 27 days | Observed Days Minus Expected Days [1, 7]: 112 days | Observed Days, Total Days [1, 7]: 413 days | Observed Days Minus Expected Days ([1]; Total Observations (Days)): 98 days | Observed Days, Total Days ([1]; Total Observations (Days)): 2148 days | Mean Day of Death, Absolute Change ([1]; vs. vehicle): 3.7 | Mean Day of Death, Percent Change ([1]; vs. vehicle): 2.9% | Mean Day of Definitive Neurological Disease, Absolute Change ([1]; vs. vehicle): −1.2 | Mean Day of Definitive Neurological Disease, Percent Change ([1]; vs. vehicle): −1.0% | Total Days of Survival after Onset of Definitive Disease, Absolute Change ([1]; vs. vehicle): 4.9 days | Total Days of Survival after Onset of Definitive Disease, Percent Change ([1]; vs. vehicle): 39.2% | Total Days of Survival after Onset of Definitive Disease, Percent Change ([1]; vs. vehicle, listed as Sulfasalazine formulation): 39% | Number of animals, average myelin content score Low ([2]; Central Region, day 30): 0 | Number of animals, average myelin content score high ([2]; Central Region, day 30): 4 | Number of animals, average myelin content score moderate ([2]; Central Region, day 30): 6 | Number of animals, average myelin content score Low ([2]; Peripheral Region, day 30): 1 | Number of animals, average myelin content score high ([2]; Peripheral Region, day 30): 4 | Number of animals, average myelin content score moderate ([2]; Peripheral Region, day 30): 5 | Number of animal scores, myelin content High [2, 8]: 8 | Number of animal scores, myelin content Low [2, 8]: 1 | Number of animal scores, myelin content Moderate [2, 8]: 11 | myelin content compared to the vehicle-treated 2D2 animals ([2]; optic nerve, day 30): highly significant increase in myelin content | Number of sections, myelin content Low [2, 9]: 0 | Number of sections, myelin content high [2, 9]: 19 | Number of sections, myelin content moderate [2, 9]: 38 | Number of sections, myelin content Low [2, 10]: 8 | Number of sections, myelin content high [2, 10]: 21 | Number of sections, myelin content moderate [2, 10]: 28 | Number of section scores, myelin content High [2, 11]: 40 | Number of section scores, myelin content Low [2, 11]: 8 | Number of section scores, myelin content Moderate [2, 11]: 66 | Percent scores, Myelin content-Total High ([2]; per-animal basis): 40% | Percent scores, Myelin content-Total Low ([2]; per-animal basis): 5% | Percent scores, Myelin content-Total Moderate ([2]; per-animal basis): 55% | Percent scores, Myelin content-Total High ([2]; per-section basis): 35% | Percent scores, Myelin content-Total Low ([2]; per-section basis): 7% | Percent scores, Myelin content-Total Moderate ([2]; per-section basis): 58% | accumulation of disability ([3]; P-MS subgroup): statistically significant reduction in their accumulation of disability | disease progression ([3]; RR-MS sub-group): did not slow disease progression | anti-epileptic effect, duration [4]: lost between two to three hours after administration
